Entries after “also recorded” stand apart in the source; their conditions may differ. Peptide text beside a SMILES is read from it. * marks the point of attachment. Cbz = O=C(OCc1ccccc1)*; CH2F = FC*
Key:
Type in all cases: in vivo
[1] = system: CC10-rtTA-IFN-γ transgene (+) mice; experiment: IFN-γ-induced emphysema (lung volume, chord length, histology, compliance) in transgenic mice; details: transgene (+) mice on dox, Z-VAD-fmk 3 μg/kg/day I.P., 14150 10 mg/kg/day by gavage, CA074 10 mg/Kg/day, leupeptin 15 mg/kg I.P., vs vehicle
Description: (§1) CC10-rtTA-IFN-γ mice that had been generated in our laboratory and bred for at least 10 generations onto a Balb/c background were used in these studies. These are dual transgene positive animals in which the reverse tetracycline transactivator (rtTA) drives the expression of the murine IFN-γ gene in a lung-specific and externally regulatable fashion. The transgene in these mice is activated by adding doxycycline (dox) to the animal's drinking water. These mice were maintained as dual transgene (+) heterozygotes (refered to as transgene (+) hereafter).
(§2) CC 10-rtTA-IFN-γ mice and littermate controls were maintained on normal water until they were 4-6 weeks old.
(§3) Animals were sacrificed via cervical dislocation, a median sternotomy was performed, and right heart perfusion was accomplished with calcium- and magnesium-free PBS to clear the pulmonary intravascular space. The lungs were then fixed to pressure (25 cm) with neutral buffered 10% formalin, fixed overnight in 10% formalin, embedded in paraffin, sectioned at 5 μm and stained. Hematoxylin and eosin (H&E) stains were performed in the Research Histology Laboratory of the Department of Pathology at Yale University School of Medicine.
In brief, the trachea was cannulated, the lungs were degassed and the lungs and heart were removed en bloc and inflated with PBS at 25 cm of pressure. The size of the lung was evaluated via volume displacement. Compliance was calculated as the change in volume divided by the change in pressure.

[2] = system: CC10-rtTA-IFN-γ transgene (+) mice; experiment: IFN-γ-induced lung cell apoptosis (TUNEL) in transgenic mice; details: for IFN-γ-induced apoptosis (TUNEL): transgene (+) mice on dox, 14150 10 mg/kg/day by gavage, CA074 10 mg/Kg/day, leupeptin 15 mg/kg I.P., vs vehicle
Description: as §1, §2
End labeling of exposed 3′-OH ends of DNA fragments in paraffin embedded tissue was undertaken with the TUNEL in situ cell death detection kit AP (Roche Diagnostics, Calif., USA) using the instructions provided by the manufacturer. After staining, 20 fields of alveoli were randomly chosen and 2000 nuclei were counted. The labeled cells were expressed as percentage of total nuclei.

[3] = system: CC10-rtTA-IFN-γ transgene (+) mice; experiment: Lung mRNA encoding cathepsins and MMPs (RT-PCR, real-time RT-PCR); details: transgene (+) mice on dox 2 weeks
[4] = system: CC10-rtTA-IFN-γ transgene (+) mice; experiment: IFN-γ-induced BAL and tissue inflammation; details: transgene (+) mice on dox 2 weeks
Protocol: Mice were euthanized, the trachea was isolated by blunt dissection, and tubing was secured in the airway. Two volumes of 1 mL of PBS with 0.1% BSA were then instilled and gently aspirated and pooled. Each BAL fluid sample was centrifuged, and the supernatants were stored in −70° C. until used The levels of IFN-γ were determined using a commercial ELISA (R&D Systems Inc., Minneapolis, Minn., USA) as per the manufacturer's instructions.
as §3

SMILES	IFN-γ-induced emphysema (lung volume, chord length, alveolar histology, compliance) [1]	IFN-γ-induced apoptosis (TUNEL) [2]	IFN-γ-induced increase in mRNA encoding cathepsin B, cathepsin S and MMPs-2 and -14 [3]	MMP-9 mRNA induction [3]	IFN-γ-induced emphysema (lung volume, chord length, alveolar histology, compliance) ([1]; listed as Z-VAD-fink)	levels of mRNA encoding cathepsin H and MMPs-9 and -12 [3]	IFN-γ-induced BAL total cell, neutrophil, lymphocyte and macrophage alterations and tissue inflammation [4]	decrease of the levels of IFN-γ-induced apoptosis ([2]; transgene (+) mice on dox 2 weeks, Z-VAD-fmk 3 μg/kg/day I.P. vs vehicle)
CCCNC(=O)[C@H]1O[C@@H]1C(=O)N[C@H](C(=O)N1CCC[C@H]1C(=O)O)[C@@H](C)CC (relative stereo) [CA074, N-(L-3-trans-propylcarbamoyl-oxirane-2-carbonyl)-L-isoleucyl-L-proline]	significant decreases	significant decreases						
CC(=O)N[C@@H](CC(C)C)C(=O)N[C@@H](CC(C)C)C(=O)N[C@H](C=O)CCCNC(=N)N [leupeptin]			decreased	induced in am leupeptin-dependent fashion				
COC(=O)C[C@H](NC(=O)[C@H](C)NC(=O)[C@@H](NC(=O)OCc1ccccc1)C(C)C)C(=O)CF [Z-VAD-fmk] (Cbz-Val-Ala-Asp(OMe)-CH2F)	decreased the emphysema generating effects of IFN-γ		markedly ameliorated		only partially abrogated	not similarly altered	markedly ameliorated	≥ 85%
CC[C@H](NC(=O)[C@H](CS(=O)(=O)CC(C)C)NC(=O)N1CCOCC1)C(=O)c1nc2ccccc2o1 [compound 14150]	significant decreases; also recorded: significantly inhibited	significant decreases; also recorded: significantly inhibited						

From patent publication US20060030562A1, “Use of an inhibitor of cathepsin-S-or-B to treat or prevent chronic obstructive pulmonary disease” (AVENTIS PHARMACEUTICALS INC., priority 2003, published 2006)
